Our source for the IC50 values is US20150175603A1, “TRICYCLIC COMPOUNDS AS KAT II INHIBITORS” (PFIZER INC., priority 2012, published 2015).

pIC50: −log10 of the molar value. Where a name gives a salt, the structure may show the parent alone.

The assay deals with human KAT II (hKAT II) enzyme (Homo sapiens, UniProt Q8N5Z0). Description: KAT II Inhibition Spectra Assay. The settings on record: single determination unless marked a (geometric mean of 2-4 determinations); decrease in OD370, L-kynurenine substrate, 37° C. for 15-20 h; read-out: KATII IC50. It is filed as biochemical. How it is done: KAT II Inhibition Spectra Assay
human KAT II (hKAT II) enzyme, sequence (Q8N5Z0 30-425): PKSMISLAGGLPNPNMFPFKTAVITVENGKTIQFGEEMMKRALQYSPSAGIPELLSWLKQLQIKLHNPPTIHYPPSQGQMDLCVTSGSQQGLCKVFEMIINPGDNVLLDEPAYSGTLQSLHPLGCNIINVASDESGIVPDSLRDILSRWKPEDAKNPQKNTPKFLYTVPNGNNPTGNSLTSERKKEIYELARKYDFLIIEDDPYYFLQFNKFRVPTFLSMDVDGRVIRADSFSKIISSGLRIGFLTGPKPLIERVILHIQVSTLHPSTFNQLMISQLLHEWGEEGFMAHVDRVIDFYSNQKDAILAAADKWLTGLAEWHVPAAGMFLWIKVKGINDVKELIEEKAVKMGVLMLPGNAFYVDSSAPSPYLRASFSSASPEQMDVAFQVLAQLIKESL
Formation of kynurenic acid (KYNA) is indirectly assessed by a decrease in light absorbance at 370 nm (OD370) as the L-kynurenine (KYN) substrate is converted by the human KAT II (hKAT II) enzyme into KYNA. An inhibitor would therefore inhibit the decrease in OD370.
The protocol was performed by placing the following reagents into a Costar 384 well black plate (30 μL total assay volume/well): • 10 μL of 3× concentrated compound; • 10 μL of 3× concentrated substrate mix (BGG (Sigma G-5009); 3 mM L-Kynurenine in 150 mM Tris Acetate (Sigma K3750); 3 mM α-ketoglutaric acid in 150 mM Tris Acetate (Sigma K2010); and 210 μM pyridoxal 5-phosphate (PLP) in 150 mM Tris Acetate (Sigma 9255)); and • 10 μL of 3× concentrated enzyme (15 nM enzyme in 150 mM Tris Acetate with 0.3% bovine serum).
Plates were sealed and incubated at 37° C. for 15-20 h before reading OD370 on a SpectraMax Plus plate reader. IC50s were generated by comparing the efficacy of compounds across a concentration range to inhibit a reduction in the OD370 value relative to assay wells with DMSO added in place of concentrated compound. Biological data for the Examples may be found in Table 2.

In general, pIC50 refers to the negative decadic logarithm of the IC50, by convention in mol/L.

As to `NC1Cc2cc(-c3ccccc3OC(F)(F)F)ccc2-n2c1n[nH]c2=O` (centres unmarked) [Example 37, 4—amino—7—[2—(trifluoromethoxy)phenyl]—4,5—dihydro[1,2,4]triazolo[4,3—a]quinolin—1(2H)—one, trifluoroacetate salt], the pIC50 is 6.28.

On to `NC1Cc2cc(-c3ccccc3Cl)ccc2-n2c1n[nH]c2=O` (centres unmarked) [Example 11, 4—amino—7—(2-chlorophenyl)—4,5—dihydro[1,2,4]triazolo[4,3—a]quinolin—1(2H)—one, trifluoroacetate salt], for which the pIC50 is 6.30.

On to `Cc1cc(-c2ccc3c(c2)CC(N)c2n[nH]c(=O)n2-3)cnc1F` (centres unmarked) [Example 43, 4—amino—7—(6—fluoro—5—methylpyridin—3—yl)—4,5—dihydro[1,2,4]triazolo[4,3—a]quinolin—1(2H)—one, trifluoroacetate salt], for which the pIC50 is 6.58.

With `NC1Cc2cc(-c3ccccc3)ccc2-n2c1n[nH]c2=O` (centres unmarked) [Example 45, 4—amino—7—phenyl—4,5-dihydro[1,2,4]triazolo[4,3—a]quinolin—1(2H)—one, hydrochloride salt], the pIC50 is 6.10.

Consider `Cc1ccccc1-c1ccc2c(c1)CC(N)c1n[nH]c(=O)n1-2` (centres unmarked) [Example 31, 4—amino—7—(2—methylphenyl)—4,5—dihydro[1,2,4]triazolo[4,3—a]quinolin—1(2H)—one, trifluoroacetate salt], for which the pIC50 is 6.18.

In the case of `CC(C)Oc1cccc(-c2ccc3c(c2)CC(N)c2n[nH]c(=O)n2-3)c1` (centres unmarked) [Example 30, 4—amino—7—[3—(propan—2—yloxy)phenyl]—4,5—dihydro[1,2,4]triazolo[4,3—a]quinolin—1(2H)—one, trifluoroacetate salt], the pIC50 was 6.27.

For the compound `NC1Cc2cc(Oc3cccc(C(F)(F)F)c3)ccc2-n2c1n[nH]c2=O` (centres unmarked) [Example 3, 4-amino-7-[3-(trifluoromethyl)phenoxy]-4,5-dihydro[1,2,4]triazolo[4,3-a]quinolin-1(2H)-one, hydrochloride salt], the pIC50 was 7.04.

For `NC1Cc2cc(-c3ccc(F)nc3)ccc2-n2c1n[nH]c2=O` (centres unmarked) [Example 42, 4—amino—7—(6—fluoropyridin—3—yl)—4,5—dihydro[1,2,4]triazolo[4,3—a]quinolin—1(2H)—one, trifluoroacetate salt], the pIC50 was 6.07.

For the compound `NC1Cc2cc(-c3cccc(C(F)(F)F)c3)ccc2-n2c1n[nH]c2=O` (centres unmarked) [Example 27, 4—amino—7—[3—(trifluoromethyl)phenyl]—4,5—dihydro[1,2,4]triazolo[4,3-a]quinolin—1(2H)—one, trifluoroacetate salt], the pIC50 is 6.67.

With `NC1Cc2cc(Oc3ccccc3)cnc2-n2c1n[nH]c2=O` (single isomer, unassigned; ent-1) [Example 2, 6-Amino-3-phenoxy-6,8-dihydro[1,2,4]triazolo[4,3-a][1,8]naphthyridin-9(5H)-one, ENT-1], the pIC50 was 7.23.

With `CC(=O)c1cccc(-c2ccc3c(c2)CC(N)c2n[nH]c(=O)n2-3)c1` (centres unmarked) [Example 25, 7—(3—acetylphenyl)—4—amino—4,5—dihydro[1,2,4]triazolo[4,3—a]quinolin—1(2H)—one, trifluoroacetate salt], the pIC50 was 7.04.

Turning to `COc1cncc(-c2ccc3c(c2)CC(N)c2n[nH]c(=O)n2-3)c1` (centres unmarked) [Example 13, 4—amino—7—(5—methoxypyriclin—3—yl)—4,5—dihydro[1,2,4]triazolo[4,3—a]quinolin—1(2H)—one, trifluoroacetate salt], the pIC50 was 6.17.

Turning to `NC1Cc2cc(-c3cccnc3)ccc2-n2c1n[nH]c2=O` (centres unmarked) [Example 20, 4—amino—7—(pyridin—3—yl)—4,5—dihydro[1,2,4]triazolo[4,3—a]quinolin—1(2H)—one, trifluoroacetate salt], the negative logarithm of the IC50 (pIC50) was 6.26.

For the compound `NC1Cc2cc(Oc3ccccc3)cnc2-n2cnnc21` (single isomer, unassigned) [Example 9, 3—phenoxy—5,6—dihydro[1,2,4]triazolo[4,3—a][1,8]naphthyridin—6—amine ENT—2], the pIC50 was 5.88.

Consider `NC1Cc2cc(Cc3ccccc3)ccc2-n2c1n[nH]c2=O` (centres unmarked) [Example 44, 4—amino—7—benzyl—4,5—dihydro[1,2,4]triazolo[4,3—a]quinolin—1(2H)—one, hydrochloride salt], for which the pIC50 was 6.37.

Regarding `COc1cccc(Oc2ccc3c(c2)C[C@H](N)c2noc(=O)n2-3)c1` [Example 6, (4S)-4-Amino-7-(3-methoxyphenoxy)-4,5-dihydro[1,2,4]oxadiazolo[4,3-a]quinolin-1-one, hydrochloride salt], the pIC50 is 6.41.

For `NC1Cc2cc(-c3ccccc3C(F)(F)F)ccc2-n2c1n[nH]c2=O` (centres unmarked) [Example 40, 4—amino—7—[2—(trifluoromethyl)phenyl]—4,5—dihydro[1,2,4]triazolo[4,3—a]quinolin—1(2H)—one, trifluoroacetate salt], the pIC50 is 6.49.
